Like-named read-outs stand apart in the source and are kept apart here.
Key:
Assay type in all cases: in vivo
Diabrotica balteata = Diabrotica balteata (corn root worm), sprayed maize sprouts; conditions: 96 h, read-out: effect in at least one of the two categories (mortality or growth inhibition); for percent effect (mortality or growth inhibition) at 200 ppm: application rate 200 ppm, L2 larvae, 4 days after infestation
How it was run: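 Read-out at 4 days post-infestation: mortality and growth inhibition relative to untreated samples. Test solutions (200 ppm, from DMSO stocks) were sprayed onto agar-held maize sprouts, which after drying received 6–10 L2 larvae per well.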

Euschistus heros = Euschistus heros (neotropical brown stink bug), sprayed soybean leaves; conditions: 120 h, read-out: effect in at least one of the two categories (mortality or growth inhibition); for percent effect (mortality or growth inhibition) at 200 ppm: application rate 200 ppm, N2 nymphs, 5 days after infestation
How it was run: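 Scored 5 days post-infestation versus untreated controls, for both mortality and growth inhibition: N2 nymphs placed on agar-mounted soybean leaves previously sprayed at 200 ppm with aqueous test solutions from DMSO stocks and left to dry.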

Myzus persicae = Myzus persicae (green peach aphid): feeding/contact activity; conditions: 144 h
Procedure: (§1) Sunflower leaf discs were placed onto agar in a 24-well microtiter plate and sprayed with aqueous test solutions prepared from 10'000 ppm DMSO stock solutions. After drying, the leaf discs were infested with an aphid population of mixed ages. The samples were assessed for mortality 6 days after infestation.

Plutella xylostella = Plutella xylostella (diamond back moth), artificial diet; conditions: 120 h, read-out: effect in at least one of the two categories (mortality or growth inhibition); for percent effect (mortality or growth inhibition) at 200 ppm: application rate 200 ppm, L2 larvae, 5 days after infestation
How it was run: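 L2 larvae (10-15 per well) fed on compound-treated, dried artificial diet; test solutions diluted in water from 10'000 ppm DMSO stocks. Readout 5 days post-infestation as mortality or growth inhibition versus untreated diet, with at least 80% effect at 200 ppm as threshold.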

Spodoptera littoralis = Spodoptera littoralis (Egyptian cotton leaf worm), sprayed cotton leaf discs; conditions: foliar, 72 h, read-out: control (mortality, anti-feeding effect, growth inhibition)
How it was run: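 Five first-instar larvae placed on dried cotton leaf discs (on agar) previously sprayed with aqueous dilutions of 10'000 ppm DMSO stocks. Scored at 3 days against untreated discs for mortality, feeding inhibition and growth inhibition; any category above untreated counts as control.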

Tetranychus urticae = Tetranychus urticae (two-spotted spider mite): feeding/contact activity; conditions: 192 h
Procedure: Bean leaf discs on agar in 24-well microtiter plates were sprayed with aqueous test solutions prepared from 10'000 ppm DMSO stock solutions. After drying the leaf discs were infested with a mite population of mixed ages. The samples were assessed for mortality on mixed population (mobile stages) 8 days after infestation.

Thrips tabaci = Thrips tabaci (onion thrips): feeding/contact activity; conditions: 144 h
Procedure: as §1, with “on” for “onto”, “in” for “in a”, “plates” for “plate”, “drying” for “drying,”, “a Thrips” for “an aphid”

[1] = application rate 200 ppm, aphid population of mixed ages, 6 days after infestation, read-out: mortality
[2] = application rate 200 ppm, L1 larvae, 3 days after infestation
[3] = application rate 200 ppm, mixed population (mobile stages), 8 days after infestation, read-out: mortality
[4] = application rate 200 ppm, Thrips population of mixed ages, 6 days after infestation, read-out: mortality

Cc1cc(C2=NO[C@@](c3cc(Cl)c(Cl)c(Cl)c3)(C(F)(F)F)C2)ccc1C(=O)NC1CON(S(=O)(=O)N(C)Cc2ccccc2)C1 (stereo partly drawn) [Compound A86, N-[2-[benzyl(methyl)sulfamoyl]isoxazolidin-4-yl]-2-methyl-4-[(5S)-5-(3,4,5-trichlorophenyl)-5-(trifluoromethyl)-4H-isoxazol-3-yl]benzamide]
≥ 80%: percent effect (mortality or growth inhibition) at 200 ppm (Diabrotica balteata) | percent effect (mortality or growth inhibition) at 200 ppm (Euschistus heros) | mortality at 200 ppm (Myzus persicae; [1]) | percent effect (mortality or growth inhibition) at 200 ppm (Plutella xylostella) | mortality at 200 ppm (Spodoptera littoralis; [2]) | mortality at 200 ppm (Tetranychus urticae; [3]) | mortality at 200 ppm (Thrips tabaci; [4])

CCN(C(=O)OC(C)(C)C)S(=O)(=O)N1CC(NC(=O)c2ccc(C3=NO[C@@](c4cc(Cl)c(F)c(Cl)c4)(C(F)(F)F)C3)cc2C)CO1 (stereo partly drawn) [Compound A93, tert-butyl N-[4-[[4-[(5S)-5-(3,5-dichloro-4-fluoro-phenyl)-5-(trifluoromethyl)-4H-isoxazol-3-yl]-2-methyl-benzoyl]amino]isoxazolidin-2-yl]sulfonyl-N-ethyl-carbamate]
≥ 80%: percent effect (mortality or growth inhibition) at 200 ppm (Diabrotica balteata) | percent effect (mortality or growth inhibition) at 200 ppm (Euschistus heros) | mortality at 200 ppm (Myzus persicae; [1]) | percent effect (mortality or growth inhibition) at 200 ppm (Plutella xylostella) | mortality at 200 ppm (Spodoptera littoralis; [2]) | mortality at 200 ppm (Tetranychus urticae; [3]) | mortality at 200 ppm (Thrips tabaci; [4])

COCN(C)S(=O)(=O)N1CC(NC(=O)c2ccc(C3=NO[C@@](c4cc(Cl)c(Cl)c(Cl)c4)(C(F)(F)F)C3)cc2C)CO1 (stereo partly drawn) [Compound A96]
≥ 80%: percent effect (mortality or growth inhibition) at 200 ppm (Diabrotica balteata) | percent effect (mortality or growth inhibition) at 200 ppm (Euschistus heros) | mortality at 200 ppm (Myzus persicae; [1]) | percent effect (mortality or growth inhibition) at 200 ppm (Plutella xylostella) | mortality at 200 ppm (Spodoptera littoralis; [2]) | mortality at 200 ppm (Tetranychus urticae; [3]) | mortality at 200 ppm (Thrips tabaci; [4])

Cc1cc(C2=NO[C@@](c3cc(Cl)c(F)c(Cl)c3)(C(F)(F)F)C2)ccc1C(=O)NC1CON(S(=O)(=O)N2CCCC2)C1 (stereo partly drawn) [Compound A99, 4-[(5S)-5-(3,5-dichloro-4-fluoro-phenyl)-5-(trifluoromethyl)-4H-isoxazol-3-yl]-2-methyl-N-(2-pyrrolidin-1-ylsulfonylisoxazolidin-4-yl)benzamide]
≥ 80%: percent effect (mortality or growth inhibition) at 200 ppm (Diabrotica balteata) | percent effect (mortality or growth inhibition) at 200 ppm (Euschistus heros) | mortality at 200 ppm (Myzus persicae; [1]) | percent effect (mortality or growth inhibition) at 200 ppm (Plutella xylostella) | mortality at 200 ppm (Spodoptera littoralis; [2]) | mortality at 200 ppm (Tetranychus urticae; [3]) | mortality at 200 ppm (Thrips tabaci; [4])

Cc1cc(C2=NO[C@@](c3cc(Cl)c(F)c(Cl)c3)(C(F)(F)F)C2)ccc1C(=O)NC1CON(S(=O)(=O)N(C)C(C)(C)C)C1 (stereo partly drawn) [Compound A100, N-[2-[tert-butyl(methyl)sulfamoyl]isoxazolidin-4-yl]-4-[(5S)-5-(3,5-dichloro-4-fluoro-phenyl)-5-(trifluoromethyl)-4H-isoxazol-3-yl]-2-methyl-benzamide]
≥ 80%: percent effect (mortality or growth inhibition) at 200 ppm (Diabrotica balteata) | percent effect (mortality or growth inhibition) at 200 ppm (Euschistus heros) | mortality at 200 ppm (Myzus persicae; [1]) | percent effect (mortality or growth inhibition) at 200 ppm (Plutella xylostella) | mortality at 200 ppm (Spodoptera littoralis; [2]) | mortality at 200 ppm (Tetranychus urticae; [3]) | mortality at 200 ppm (Thrips tabaci; [4])

Cc1cc(C2=NO[C@@](c3cc(Cl)c(Cl)c(Cl)c3)(C(F)(F)F)C2)ccc1C(=O)NC1CON(S(=O)(=O)NC(C)C)C1 (stereo partly drawn) [Compound A101, N-[2-(isopropylsulfamoyl)isoxazolidin-4-yl]-2-methyl-4-[(5S)-5-(3,4,5-trichlorophenyl)-5-(trifluoromethyl)-4H-isoxazol-3-yl]benzamide]
≥ 80%: percent effect (mortality or growth inhibition) at 200 ppm (Diabrotica balteata) | percent effect (mortality or growth inhibition) at 200 ppm (Euschistus heros) | mortality at 200 ppm (Myzus persicae; [1]) | percent effect (mortality or growth inhibition) at 200 ppm (Plutella xylostella) | mortality at 200 ppm (Spodoptera littoralis; [2]) | mortality at 200 ppm (Tetranychus urticae; [3]) | mortality at 200 ppm (Thrips tabaci; [4])

Cc1cc(C2=NO[C@@](c3cc(Cl)c(Cl)c(Cl)c3)(C(F)(F)F)C2)ccc1C(=O)NC1CON(S(=O)(=O)N(C)C(C)C)C1 (stereo partly drawn) [Compound A103, N-[2-[isopropyl(methyl)sulfamoyl]isoxazolidin-4-yl]-2-methyl-4-[(5S)-5-(3,4,5-trichlorophenyl)-5-(trifluoromethyl)-4H-isoxazol-3-yl]benzamide]
≥ 80%: percent effect (mortality or growth inhibition) at 200 ppm (Diabrotica balteata) | percent effect (mortality or growth inhibition) at 200 ppm (Euschistus heros) | mortality at 200 ppm (Myzus persicae; [1]) | percent effect (mortality or growth inhibition) at 200 ppm (Plutella xylostella) | mortality at 200 ppm (Spodoptera littoralis; [2]) | mortality at 200 ppm (Tetranychus urticae; [3]) | mortality at 200 ppm (Thrips tabaci; [4])

CCN(C(C)C)S(=O)(=O)N1CC(NC(=O)c2ccc(C3=NO[C@@](c4cc(Cl)c(Cl)c(Cl)c4)(C(F)(F)F)C3)cc2C)CO1 (stereo partly drawn) [Compound A104]
≥ 80%: percent effect (mortality or growth inhibition) at 200 ppm (Diabrotica balteata) | percent effect (mortality or growth inhibition) at 200 ppm (Euschistus heros) | mortality at 200 ppm (Myzus persicae; [1]) | percent effect (mortality or growth inhibition) at 200 ppm (Plutella xylostella) | mortality at 200 ppm (Spodoptera littoralis; [2]) | mortality at 200 ppm (Tetranychus urticae; [3]) | mortality at 200 ppm (Thrips tabaci; [4])

Cc1cc(C2=NO[C@@](c3cc(Cl)c(Cl)c(Cl)c3)(C(F)(F)F)C2)ccc1C(=O)NC1CON(S(=O)(=O)F)C1 (stereo partly drawn) [Compound A106, 4-[[2-methyl-4-[(5S)-5-(3,4,5-trichlorophenyl)-5-(trifluoromethyl)-4H-isoxazol-3-yl]benzoyl]amino]isoxazolidine-2-sulfonyl fluoride]
≥ 80%: percent control (mortality or growth inhibition) at 200 ppm (Diabrotica balteata) | percent control (mortality or growth inhibition) at 200 ppm (Euschistus heros) | mortality at 200 ppm (Myzus persicae) | percent control (mortality or growth inhibition) at 200 ppm (Plutella xylostella) | mortality at 200 ppm (Spodoptera littoralis) | mortality at 200 ppm (Tetranychus urticae) | mortality at 200 ppm (Thrips tabaci)

CCNS(=O)(=O)N1C[C@@H](NC(=O)c2ccc(C3=NO[C@@](c4cc(Cl)c(F)c(Cl)c4)(C(F)(F)F)C3)cc2Cl)CO1 [Compound A124, 2-chloro-4-[(5S)-5-(3,5-dichloro-4-fluoro-phenyl)-5-(trifluoromethyl)-4H-isoxazol-3-yl]-N-[(4R)-2-(ethylsulfamoyl)isoxazolidin-4-yl]benzamide]
≥ 80%: percent effect (mortality or growth inhibition) at 200 ppm (Diabrotica balteata) | percent effect (mortality or growth inhibition) at 200 ppm (Euschistus heros) | mortality at 200 ppm (Myzus persicae; [1]) | percent effect (mortality or growth inhibition) at 200 ppm (Plutella xylostella) | mortality at 200 ppm (Spodoptera littoralis; [2]) | mortality at 200 ppm (Tetranychus urticae; [3]) | mortality at 200 ppm (Thrips tabaci; [4])

CCN(C)S(=O)(=O)N1C[C@@H](NC(=O)c2ccc(C3=NO[C@@](c4cc(Cl)cc(Cl)c4)(C(F)(F)F)C3)cc2Cl)CO1 [Compound A129, 2-chloro-4-[(5S)-5-(3,5-dichlorophenyl)-5-(trifluoromethyl)-4H-isoxazol-3-yl]-N-[(4R)-2-[ethyl(methyl)sulfamoyl]isoxazolidin-4-yl]benzamide]
≥ 80%: percent effect (mortality or growth inhibition) at 200 ppm (Diabrotica balteata) | percent effect (mortality or growth inhibition) at 200 ppm (Euschistus heros) | mortality at 200 ppm (Myzus persicae; [1]) | percent effect (mortality or growth inhibition) at 200 ppm (Plutella xylostella) | mortality at 200 ppm (Spodoptera littoralis; [2]) | mortality at 200 ppm (Tetranychus urticae; [3]) | mortality at 200 ppm (Thrips tabaci; [4])

Cc1cc(C2=NO[C@@](c3cc(Cl)c(F)c(Cl)c3)(C(F)(F)F)C2)ccc1C(=O)N[C@H]1CON(S(=O)(=O)N2CCC2)C1 [Compound A148]
≥ 80%: percent effect (mortality or growth inhibition) at 200 ppm (Diabrotica balteata) | percent effect (mortality or growth inhibition) at 200 ppm (Euschistus heros) | mortality at 200 ppm (Myzus persicae; [1]) | percent effect (mortality or growth inhibition) at 200 ppm (Plutella xylostella) | mortality at 200 ppm (Spodoptera littoralis; [2]) | mortality at 200 ppm (Tetranychus urticae; [3]) | mortality at 200 ppm (Thrips tabaci; [4])

— US10588317B2, “Isoxazoline-substituted benzamides and analogues as insecticides” (priority 2015, dated 2020)
